The values that follow come from US10059701B2 (Merck Patent GmbH, priority 2015, dated 2018).

The structures appear in SMILES notation.

The target in one assay is T1, IRAK4 (Homo sapiens, UniProt Q9NWZ3).
T1 construct: His-TEV-IRAK4 (1-460); His (N); TEV cleavage site (N)
T1 sequence (Q9NWZ3 1-460): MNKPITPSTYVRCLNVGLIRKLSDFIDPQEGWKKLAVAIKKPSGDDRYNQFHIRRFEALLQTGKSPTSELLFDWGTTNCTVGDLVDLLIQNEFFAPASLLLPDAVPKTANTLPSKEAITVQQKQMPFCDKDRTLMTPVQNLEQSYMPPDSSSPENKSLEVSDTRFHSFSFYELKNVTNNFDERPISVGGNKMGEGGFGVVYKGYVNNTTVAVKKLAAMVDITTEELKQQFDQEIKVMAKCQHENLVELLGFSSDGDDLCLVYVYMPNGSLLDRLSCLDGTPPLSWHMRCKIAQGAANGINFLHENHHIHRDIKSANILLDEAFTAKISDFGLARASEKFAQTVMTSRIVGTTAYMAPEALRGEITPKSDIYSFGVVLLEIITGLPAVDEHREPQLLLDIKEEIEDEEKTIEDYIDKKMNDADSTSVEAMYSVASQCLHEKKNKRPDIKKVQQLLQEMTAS
As to the kind of experiment: IRAK4 enzymatic assay (ADP-Glo luminescence). It is filed as biochemical. As to conditions: purified human recombinant His-TEV-IRAK4 (1-460), ATP 2 μM. The protocol:
IRAK4 is a human purified recombinant enzyme (His-TEV-IRAK4 (1-460)).
In this assay, IRAK4 hydrolyses ATP, autophosphorylates and phosphorylates a Serine/Threonine generic peptidic substrate (STK: 61ST1BLC from CisBio International). Measurement of IRAK-4 inhibition is performed in 384-well format based on a luminescence assay (ADP-Glo™ Kinase Assay from Promega). Purified human recombinant IRAK4 (0.3 μg/ml) and serial diluted compounds in DMSO (range of concentration from 10 μM to 0.5 nM) or controls (1% DMSO) are incubated for 15 minutes at RT in assay buffer containing 50 mM Hepes pH 7.0, Fatty acid-free BSA 0.1%, Dithiothreitol (DTT) 2 mM, MgCl2 10 mM, EGTA 0.5 mM, Triton X-100 0.01%, MnCl2 5 mM. The kinase reaction is then initiated by the addition of ATP (2 μM) and the peptidic substrate STK1-biotin peptide (300 nM). After 2 hours of incubation at RT, the reaction is stopped and the unconsumed ATP depleted by the addition of ADP-Glo™ Reagent according to supplier instructions. After 40 minutes of incubation at RT, the Kinase Detection Reagent is then added to the assay plate according to supplier instructions. After 20 minutes of incubation at RT, the luminescence signal is measured with a plate-reading luminometer (PerkinElmer Envision or equivalent reader).

For a further assay, the target named is T2, IRAK1 (Homo sapiens, UniProt P51617).
T2 construct: His-TEV-IRAK1 (194-712); His (N); TEV cleavage site (N)
T2 sequence (P51617 194-712): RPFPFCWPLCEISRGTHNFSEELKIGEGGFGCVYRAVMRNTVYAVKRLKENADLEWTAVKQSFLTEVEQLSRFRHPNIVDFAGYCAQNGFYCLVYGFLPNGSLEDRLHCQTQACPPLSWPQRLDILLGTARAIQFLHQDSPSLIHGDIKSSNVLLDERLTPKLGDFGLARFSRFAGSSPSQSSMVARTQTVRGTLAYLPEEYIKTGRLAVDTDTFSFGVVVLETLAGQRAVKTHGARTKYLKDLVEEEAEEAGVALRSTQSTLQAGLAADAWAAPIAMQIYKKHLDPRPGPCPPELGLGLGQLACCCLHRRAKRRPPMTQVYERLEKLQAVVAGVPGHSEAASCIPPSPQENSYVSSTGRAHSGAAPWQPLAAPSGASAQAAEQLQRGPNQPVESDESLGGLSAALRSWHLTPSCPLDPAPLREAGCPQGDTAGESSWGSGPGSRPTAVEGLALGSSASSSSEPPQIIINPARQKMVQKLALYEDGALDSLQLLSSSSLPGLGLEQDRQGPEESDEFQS
As to the kind of experiment: IRAK1 enzymatic assay (ADP-Glo luminescence). It is filed as biochemical. As to conditions: purified human recombinant His-TEV-IRAK1 (194-712). How it is done:
IRAK1 is a human purified recombinant enzyme (His-TEV-IRAK1 (194-712))
In this assay, IRAK1 hydrolyses ATP and autophosphorylates. Measurement of IRAK-1 inhibition is performed in 384-well format based on luminescence assay (ADP-Glo™ Kinase Assay from Promega). Purified human recombinant IRAK1 (0.3 μg/ml) and serial diluted compounds in DMSO (range of concentration from 10 μM to 0.5 nM) or controls (1% DMSO) are incubated for 15 minutes at RT in assay buffer containing 50 mM Hepes pH 7.0, Fatty acid-free BSA 0.1%, Dithiothreitol (DTT) 2 mM, MgCl2 10 mM, EGTA 0.5 mM, Triton X-100 0.01%. The kinase reaction is then initiated by the addition of ATP […] After 2 hours of incubation at RT, the reaction is stopped and the unconsumed ATP depleted by the addition of ADP-Glo™ Reagent according to supplier instructions. After 40 minutes of incubation at RT, the Kinase Detection Reagent is then added to the assay plate according to supplier instructions. After 20 minutes of incubation at RT, the luminescence signal is measured with a luminometer (PerkinElmer Envision or equivalent reader).

Consider `CS(=O)(=O)c1cccc(C(=O)/N=c2\[nH]c3cc(N4CCOCC4=O)ccc3n2CC2(CO)CC2)c1` [Compound 13, (E)-N-(1-((1-(hydroxymethyl)cyclopropyl)methyl)-5-(3-oxomorpholino)-1H-benzo[d]imidazol-2(3H)-ylidene)-3-(methylsulfonyl)benzamide], for which the IC50 at IRAK4 and on IRAK1 was ≤ 100 nM throughout.
Take `O=C(/N=c1\[nH]c2cc(N3CCOCC3=O)ccc2n1CC1(CO)CC1)c1cccc(C(F)F)c1` [Compound 14, (E)-3-(difluoromethyl)-N-(1-((1-(hydroxymethyl)cyclopropyl)methyl)-5-(3-oxomorpholino)-1H-benzo[d]imidazol-2(3H)-ylidene)benzamide]: the IC50 on IRAK4 and on IRAK1 was ≤ 100 nM throughout.
On to `C[C@H](CCO)n1/c(=N/C(=O)c2cccc(C(F)(F)F)c2)[nH]c2cc(N3CCOCC3=O)ccc21` [Compound 15, (R,E)-N-(1-(4-hydroxybutan-2-yl)-5-(3-oxomorpholino)-1H-benzo[d]imidazol-2(3H)-ylidene)-3-(trifluoromethyl)benzamide], for which the IC50 at IRAK4 is ≤ 100 nM; on IRAK1 it was 100 to 1000 nM.
The corresponding values for `C[C@@H](CCO)n1/c(=N/C(=O)c2cccc(C(F)F)c2)[nH]c2cc(N3CCOCC3=O)ccc21` [Compound 16, (S,E)-3-(difluoromethyl)-N-(1-(4-hydroxybutan-2-yl)-5-(3-oxomorpholino)-1H-benzo[d]imidazol-2(3H)-ylidene)benzamide] are ≤ 100 nM and 100 to 1000 nM.
The corresponding values for `O=C(/N=c1\[nH]c2cc(N3CCOCC3=O)ccc2n1CCCCO)c1cccc(C(F)(F)F)c1` [Compound 17, (E)-N-(1-(4-hydroxybutyl)-5-(3-oxomorpholino)-1H-benzo[d]imidazol-2(3H)-ylidene)-3-(trifluoromethyl)benzamide] are ≤ 100 nM and 100 to 1000 nM.
Take `N#Cc1cccc(C(=O)/N=c2\[nH]c3cc(N4CCOCC4=O)ccc3n2CCCCO)c1` [Compound 18, (E)-3-cyano-N-(1-(4-hydroxybutyl)-5-(3-oxomorpholino)-1H-benzo[d]imidazol-2(3H)-ylidene)benzamide]: the concentration for half-maximal inhibition (IC50) on IRAK4 was ≤ 100 nM; at IRAK1, 100 to 1000 nM.
The corresponding values for `CS(=O)(=O)c1cccc(C(=O)/N=c2\[nH]c3cc(N4CCOCC4=O)ccc3n2CCCCO)c1` [Compound 19, (E)-N-(1-(4-hydroxybutyl)-5-(3-oxomorpholino)-1H-benzo[d]imidazol-2(3H)-ylidene)-3-(methylsulfonyl)benzamide] are ≤ 100 nM and 100 to 1000 nM.
For `Cn1cnc2ccc(C(=O)/N=c3\[nH]c4cc(N5CCOCC5=O)ccc4n3CCCO)cc21` [Compound 20, (E)-N-(1-(3-hydroxypropyl)-5-(3-oxomorpholino)-1H-benzo[d]imidazol-2(3H)-ylidene)-1-methyl-1H-benzo[d]imidazole-6-carboxamide] the same measures were 100 to 1000 nM and > 1000 nM.
For `O=C(/N=c1\[nH]c2cc(N3CCOCC3=O)ccc2n1CCCO)c1cccc(CO)c1` [Compound 21, (E)-3-(hydroxymethyl)-N-(1-(3-hydroxypropyl)-5-(3-oxomorpholino)-1H-benzo[d]imidazol-2(3H)-ylidene)benzamide], the IC50 at IRAK4 is ≤ 100 nM; at IRAK1, 100 to 1000 nM.
As to `Cn1cnc2cc(C(=O)/N=c3\[nH]c4cc(N5CCOCC5=O)ccc4n3CCCO)ccc21` [Compound 22, (E)-N-(1-(3-hydroxypropyl)-5-(3-oxomorpholino)-1H-benzo[d]imidazol-2(3H)-ylidene)-1-methyl-1H-benzo[d]imidazole-5-carboxamide], the IC50 at IRAK4 and at IRAK1 was > 1000 nM each time.
In the case of `O=C(/N=c1\[nH]c2cc(N3CCOCC3=O)ccc2n1CCCO)c1ccc2c(c1)COC2=O` [Compound 23, (E)-N-(1-(3-hydroxypropyl)-5-(3-oxomorpholino)-1H-benzo[d]imidazol-2(3H)-ylidene)-1-oxo-1,3-dihydroisobenzofuran-5-carboxamide], the IC50 was ≤ 100 nM at IRAK4 and > 1000 nM on IRAK1.
The corresponding values for `C[C@H](CCO)n1/c(=N/C(=O)c2cccc(S(C)(=O)=O)c2)[nH]c2cc(N3CCOCC3=O)ccc21` [Compound 24, (R,E)-N-(1-(4-hydroxybutan-2-yl)-5-(3-oxomorpholino)-1H-benzo[d]imidazol-2(3H)-ylidene)-3-(methylsulfonyl)benzamide] are ≤ 100 nM and 100 to 1000 nM.
Take `O=C(/N=c1\[nH]c2cc(N3CCOCC3=O)ccc2n1CC1(CO)CC1)c1cc(F)cc(C(F)(F)F)c1` [Compound 25, (E)-3-fluoro-N-(1-((1-(hydroxymethyl)cyclopropyl)methyl)-5-(3-oxomorpholino)-1H-benzo[d]imidazol-2(3H)-ylidene)-5-(trifluoromethyl)benzamide]: the values for the half-inhibitory concentration (IC50) on IRAK4 and on IRAK1 were ≤ 100 nM and 100 to 1000 nM, respectively.
As for `O=C(/N=c1\[nH]c2cc(N3CCOCC3=O)ccc2n1CCCCO)c1cccc(C(F)F)c1` [Compound 26, (E)-3-(difluoromethyl)-N-(1-(4-hydroxybutyl)-5-(3-oxomorpholino)-1H-benzo[d]imidazol-2(3H)-ylidene)benzamide], the IC50 on IRAK4 and on IRAK1 was ≤ 100 nM each time.
On to `N#Cc1cccc(C(=O)/N=c2\[nH]c3cc(N4CCOCC4=O)ccc3n2[C@H]2CC[C@H](O)CC2)c1` [Compound 27, trans-(E)-3-cyano-N-(1-(4-hydroxycyclohexyl)-5-(3-oxomorpholino)-1H-benzo[d]imidazol-2(3H)-ylidene)benzamide], for which the IC50 at IRAK4 and on IRAK1 was ≤ 100 nM each time.
For `O=C(/N=c1\[nH]c2cc(N3CCOCC3=O)ccc2n1[C@H]1CC[C@H](O)CC1)c1cccc(C(F)F)c1` [Compound 28, trans-(E)-3-(difluoromethyl)-N-(1-(4-hydroxycyclohexyl)-5-(3-oxomorpholino)-1H-benzo[d]imidazol-2(3H)-ylidene)benzamide], the IC50 on IRAK4 and on IRAK1 was ≤ 100 nM each time.
As to `O=C(/N=c1\[nH]c2cc(N3CCCOC3=O)ccc2n1CCCO)c1cccc(C(F)F)c1` [Compound 29, (E)-3-(difluoromethyl)-N-(1-(3-hydroxypropyl)-5-(2-oxo-1,3-oxazinan-3-yl)-1H-benzo[d]imidazol-2(3H)-ylidene)benzamide], the IC50 on IRAK4 and at IRAK1 was ≤ 100 nM each time.
As to `O=C(/N=c1\[nH]c2cc(N3CCOCC3=O)ccc2n1CCCO)c1ccccc1` [Compound 30, (E)-N-(1-(3-hydroxypropyl)-5-(3-oxomorpholino)-1H-benzo[d]imidazol-2(3H)-ylidene)benzamide], the IC50 on IRAK4 and at IRAK1 was 100 to 1000 nM each time.
Take `CS(=O)(=O)c1cccc(C(=O)/N=c2\[nH]c3cc(N4CCOCC4=O)ccc3n2[C@H]2CC[C@H](O)CC2)c1` [Compound 31, trans-(E)-N-(1-(4-hydroxycyclohexyl)-5-(3-oxomorpholino)-1H-benzo[d]imidazol-2(3H)-ylidene)-3-(methylsulfonyl)benzamide]: the IC50 at IRAK4 and on IRAK1 was ≤ 100 nM each time.
As to `O=C(/N=c1\[nH]c2cc(N3CCOCC3=O)ccc2n1[C@H]1CC[C@H](O)CC1)c1cccc(C(F)(F)F)c1` [Compound 32, trans-(E)-N-(1-(4-hydroxycyclohexyl)-5-(3-oxomorpholino)-1H-benzo[d]imidazol-2(3H)-ylidene)-3-(trifluoromethyl)benzamide], the IC50 is ≤ 100 nM at IRAK4 and 100 to 1000 nM at IRAK1.
